Data from US12264173B2 (GILEAD SCIENCES, INC., priority 2020, dated 2025).
Where two headings read alike, the source gives them in different places.

Experiments:
Assay type in all cases: cell-based
[1] = test system: RSV A2; experiment: RSV NHBE EC50 (RSV A2 antiviral assay in NHBE cells); details: read-out: RSV NHBE EC50
Method: Normal human bronchial epithelial (NHBE) cells were purchased from Lonza (Walkersville, MD, Cat #CC-2540) and cultured in Bronchial Epithelial Growth Media (BEGM) (Lonza, Walkersville, MD, Cat #CC-3170). The cells were passaged 1-2 times per week to maintain <80% confluency. The NHBE cells were discarded after 6 passages in culture.
To conduct the RSV A2 antiviral assay, NHBE cells were plated in 96-well plates at a density of 7,500 cells per well in BEGM and allowed to attach overnight at 37° C. Following attachment, 100 μL of cell culture media was removed and 3-fold serially diluted compound was added using a Hewlett-Packard D300 Digital Dispenser. The final concentration of DMSO was normalized to 0.05%. Following compound addition, the NHBE cells were infected by the addition of 100 μL of RSV A2 at a titer of 1×10^4.5 tissue culture infectious doses/mL in BEGM and then incubated at 37° C. for 4 days. The NHBE cells were then allowed to equilibrate to 25° C. and cell viability was determined by removing 100 μL of culture medium and adding 100 μL of Cell-Titer Glo viability reagent. The mixtures were incubated for 10 minutes at 25° C., and the luminescence signal was quantified on an Envision luminescence plate reader.

[2] = test system: RSV strain A2; experiment: microbe, parasite or virus in culture; details: read-out: RSV HEp-2 EC50
Method: Antiviral activity against RSV is determined using an infectious cytopathic cell protection assay in HEp-2 cells. In this assay, compounds inhibiting viral infection and/or replication produce a cytoprotective effect against the virus-induced cell killing that can be quantified using a cell viability reagent. The techniques used here are novel adaptations of methods described in published literature (Chapman et al., Antimicrob Agents Chemother. 2007, 51(9):3346-53.).
HEp-2 cells are obtained from ATCC (Manassas, VI) and maintained in MEM media supplemented with 10% fetal bovine serum and penicillin/streptomycin. Cells are passaged twice a week and kept at subconfluent stage. Commercial stock of RSV strain A2 (Advanced Biotechnologies, Columbia, MD) is titered before compound testing to determine the appropriate dilution of the virus stock that generates desirable cytopathic effect in HEp-2 cells.
For antiviral tests, HEp-2 cells are grown in large cell culture flasks to near confluency but not fully so. The compounds to be tested are prediluted in DMSO in 384-well compound dilution plates, either in an 8 or 40 sample per plate standardized dose response format. 3-fold serial dilution increments of each test compound are prepared in the plates and test samples are transferred via acoustic transfer apparatus (Echo, Labcyte) at 100 nL per well into cell culture assay 384-well plates. Each compound dilution is transferred in single or quadruplicate samples into dry assay plates, which are stored until assay is ready to go. The positive and negative controls are laid out in opposite on ends of the plate in vertical blocks (1 column).
Subsequently, an infectious mixture is prepared using an appropriate dilution of virus stock previously determined by titration with cells at a density of 50,000/mL and 20 µL/well is added to test plates w/compounds via automation (uFlow, Biotek). Each plate includes negative and positive controls (16 replicates each) to create 0% and 100% virus inhibition standards, respectively. Following the infection with RSV, testing plates are incubated for 4 days in a 37° C. cell culture incubator. After the incubation, a cell viability reagent, Cell TiterGlo (Promega, Madison, WI) is added to the assay plates, which are incubated briefly, and a luminescent readout is measured (Envision, Perkin Elmer) in all the assay plates. The RSV-induced cytopathic effect, percentage inhibition, is determined from the levels of remaining cell viability. […] Various potent anti-RSV tool compounds are used as positive controls for antiviral activity.

[3] = test system: HRV16; experiment: HRV16 HeLa EC50 (cytopathic effect in H1-HeLa cells); details: read-out: HRV16 HeLa EC50
Method: H1-HeLa cells, cultured in complete DMEM medium containing 10% heat-inactivated FBS and 1% Penicillin/Streptomycin, were seeded in 96 well plates at 3000 cells/well one day prior to compound dosing and infection. The antiviral activity of each compound was measured in triplicate. Compounds were added directly to the cell cultures in serial 3-fold dilutions using the HP300 digital dispenser (Hewlett Packard, Palo Alto, CA) immediately prior to infection. The plates were transferred to BSL-2 containment and the appropriate dilution of virus stock, previously determined by titration and prepared in cell culture media, was added to test plates containing cells and serially diluted compounds. Each plate included 6 wells of infected untreated cells and 6 wells of uninfected cells that served as 0% and 100% virus inhibition control, respectively. Following the infection, test plates were incubated for 96 h in a tissue culture incubator set to 33° C./5% CO2. Following incubation, the H1-HeLa cells were removed from incubation and allowed to equilibrate to 25° C. Cell viability was determined by removing 100 μL of culture medium and adding 100 μL of Cell-Titer Glo viability reagent. The mixtures were incubated on a shaker for 10 minutes at 25° C., and the luminescence signal was quantified on an Envision luminescence plate reader.

[4] = human respiratory syncytial virus, NHBE, 96 h, Table 3, NHBE cells, RSV A2, 4 days
[5] = human respiratory syncytial virus, HEp-2, 96 h, Table 3, HEp-2 cells, RSV A2, 4 days
[6] = 96 h, Table 3, H1-HeLa cells, 96 h

| Compound | EC50 [1, 4] | EC50 ([1]; human respiratory syncytial virus, NHBE, Table 5 comparative activity, 2',3'-OH vs -OC(O)iPr) | EC50 [2, 5] | EC50 ([2]; human respiratory syncytial virus, HEp-2, Table 5 comparative activity, 2',3'-OH vs -OC(O)iPr) | EC50 [3, 6] | EC50 ([3]; HeLa, Table 5 comparative activity, 2',3'-OH vs -OC(O)iPr) | EC50 ([1]; Table 3, NHBE cells, RSV A2, 4 days) | EC50 ([2]; Table 3, HEp-2 cells, RSV A2, 4 days) | EC50 ([3]; Table 3, H1-HeLa cells, 96 h) |
| --- | --- | --- | --- | --- | --- | --- | --- | --- | --- |
| CC(C)C(=O)O[C@H]1[C@H](c2ccc3c(N)ncnn23)O[C@](C#N)(COP(=O)(N[C@@H](C)C(=O)O[C@H]2CCN(C)C2)Oc2ccccc2)[C@H]1OC(=O)C(C)C (stereo partly drawn) [Example 228, (2R,3S,4S,5S)-5-(4-aminopyrrolo[2,1-f][1,2,4]triazin-7-yl)-2-cyano-2-((((((S)-1-(((S)-1-methylpyrrolidin-3-yl)oxy)-1-oxopropan-2-yl)amino)(phenoxy)phosphoryl)oxy)methyl)tetrahydrofuran-3,4-diyl bis(2-methylpropanoate)] | 59 nM | 59 nM | 84 nM | 84 nM | 956 nM | 956 nM |  |  |  |
| COCCC(=O)O[C@H]1[C@H](c2ccc3c(N)ncnn23)O[C@](C#N)(CO[P@@](=O)(N[C@@H](C)C(=O)OC)Oc2ccccc2)[C@H]1OC(=O)CCOC [Example 231, (2R,3S,4S,5S)-5-(4-aminopyrrolo[2,1-f][1,2,4]triazin-7-yl)-2-cyano-2-((((S)-(((S)-1-methoxy-1-oxopropan-2-yl)amino)(phenoxy)phosphoryl)oxy)methyl) tetrahydrofuran-3,4-diyl bis(3-methoxypropanoate)] | 75 nM |  | 124 nM |  | 1730 nM |  |  |  |  |
| CC(C)C(=O)O[C@H]1[C@H](c2ccc3c(N)ncnn23)O[C@](C#N)(COP(=O)(N[C@@H](C)C(=O)O[C@@H]2CCN(C)C2)Oc2ccccc2)[C@H]1OC(=O)C(C)C (stereo partly drawn) [Example 232, (2R,3S,4S,5S)-5-(4-aminopyrrolo[2,1-f][1,2,4]triazin-7-yl)-2-cyano-2-((((((S)-1-(((R)-1-methylpyrrolidin-3-yl)oxy)-1-oxopropan-2-yl)amino)(phenoxy)phosphoryl)oxy)methyl)tetrahydrofuran-3,4-diyl bis(2-methylpropanoate)] | 53 nM |  | 95 nM |  | 880 nM |  |  |  |  |
| COC(=O)[C@H](C)NP(=O)(OC[C@@]1(C#N)O[C@@H](c2ccc3c(N)ncnn23)[C@H](OC(=O)C(C)C)[C@@H]1OC(=O)C(C)C)Oc1ccc(C[C@H](N)C(=O)OC)cc1 (stereo partly drawn) [Example 235, (2R,3S,4S,5S)-2-((((4-((S)-2-amino-3-methoxy-3-oxopropyl)phenoxy)(((S)-1-methoxy-1-oxopropan-2-yl)amino)phosphoryl)oxy)methyl)-5-(4-aminopyrrolo[2,1-f][1,2,4]triazin-7-yl)-2-cyanotetrahydrofuran-3,4-diyl bis(2-methylpropanoate)] | 113 nM |  | 742 nM |  | 2260 nM |  |  |  |  |
| CC(C)C(=O)O[C@H]1[C@H](c2ccc3c(N)ncnn23)O[C@](C#N)(COP(=O)(N[C@@H](C)C(=O)OCc2ccccc2)Oc2ccccc2)[C@H]1OC(=O)C(C)C (stereo partly drawn) [Example 236, (2R,3S,4S,5S)-5-(4-aminopyrrolo[2,1-f][1,2,4]triazin-7-yl)-2-((((((S)-1-(benzyloxy)-1-oxopropan-2-yl)amino)(phenoxy)phosphoryl)oxy)methyl)-2-cyanotetrahydrofuran-3,4-diyl bis(2-methylpropanoate)] | 24 nM |  | 49 nM |  | 136 nM |  |  |  |  |
| CC(C)C(=O)O[C@H]1[C@H](c2ccc3c(N)ncnn23)O[C@](C#N)(COP(=O)(N[C@@H](C)C(=O)OCCCN2CCOCC2)Oc2ccccc2)[C@H]1OC(=O)C(C)C (stereo partly drawn) [Example 237, (2R,3S,4S,5S)-5-(4-aminopyrrolo[2,1-f][1,2,4]triazin-7-yl)-2-cyano-2-((((((S)-1-(3-morpholinopropoxy)-1-oxopropan-2-yl)amino)(phenoxy)phosphoryl)oxy)methyl) tetrahydrofuran-3,4-diyl bis(2-methylpropanoate)] | 43 nM |  | 106 nM |  | 478 nM |  |  |  |  |
| CC(C)C(=O)O[C@H]1[C@H](c2ccc3c(N)ncnn23)O[C@](C#N)(COP(=O)(N[C@@H](C)C(=O)OCC2CC2)Oc2ccccc2)[C@H]1OC(=O)C(C)C (stereo partly drawn) [Example 238, (2R,3S,4S,5S)-5-(4-aminopyrrolo[2,1-f][1,2,4]triazin-7-yl)-2-cyano-2-((((((S)-1-(cyclopropylmethoxy)-1-oxopropan-2-yl)amino)(phenoxy)phosphoryl)oxy)methyl) tetrahydrofuran-3,4-diyl bis(2-methylpropanoate)] |  |  |  |  |  |  | 28 nM | 27 nM | 99 nM |
| CCC(CC)COC(=O)[C@H](C)NP(=O)(O)OC[C@@]1(C#N)O[C@@H](c2ccc3c(N)ncnn23)[C@H](OC(=O)C(C)C)[C@@H]1OC(=O)C(C)C [Example 239, ((2R,3S,4S,5S)-5-(4-aminopyrrolo[2,1-f][1,2,4]triazin-7-yl)-2-cyano-3,4-bis(isobutyryloxy)tetrahydrofuran-2-yl)methyl ((S)-1-(2-ethylbutoxy)-1-oxopropan-2-yl)phosphoramidate] | 2260 nM |  | > 9830 nM |  | > 50000 nM |  |  |  |  |
